Assay results published in PubChem BioAssay AID248 (DTP/NCI, 2004).
Inconclusive results and toxic doses are left out. No stated cut-off is given here; in the data, active means T/C of 150% or more; inactive means T/C below 125%. Square brackets hold non-standard residues; d marks the D form. Peptide text beside a SMILES is read from it. Ac5c = NC1(C(=O)O)CCCC1

Tested on: L1210 leukemia ip in BDF1 mice, survival T/C
Experiment: NCI In Vivo Anticancer Drug Screen. Data for tumor model L1210 Leukemia (intraperitoneal) in B6D2F1 (BDF1) mice
Conditions: endpoint: mean survival time, higher = longer survival
How it was run: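 Each compound was tested against a transplantable tumor grown in mice. The endpoint was survival, with treated animals benchmarked against vehicle controls as a simple ratio.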

[1] = dose: 100.0 mg/kg/injection, schedule: Q01DX009 (ip), vehicle: Klucel (hydroxypropylcellulose) (HPC)
[2] = dose: 200.0 mg/kg/injection, schedule: Q01DX009 (ip), vehicle: Klucel (hydroxypropylcellulose) (HPC)
[3] = dose: 400.0 mg/kg/injection, schedule: Q01DX009 (ip), vehicle: Klucel (hydroxypropylcellulose) (HPC)
[4] = dose: 100.0 mg/kg/injection, schedule: Q04DX003 (ip), vehicle: saline with Tween-80
[5] = dose: 100.0 mg/kg/injection, schedule: Q04DX003 (ip), vehicle: Klucel (hydroxypropylcellulose) (HPC)
[6] = dose: 200.0 mg/kg/injection, schedule: Q04DX003 (ip), vehicle: Klucel (hydroxypropylcellulose) (HPC)
[7] = dose: 400.0 mg/kg/injection, schedule: Q04DX003 (ip), vehicle: Klucel (hydroxypropylcellulose) (HPC)
[8] = dose: 100.0 mg/kg/injection, schedule: Q01DX009 (ip), vehicle: saline
[9] = dose: 200.0 mg/kg/injection, schedule: Q01DX009 (ip), vehicle: saline
[10] = dose: 400.0 mg/kg/injection, schedule: Q01DX009 (ip), vehicle: saline

Measured: T/C

NC1(C(=O)NCC(=O)O)CCCC1 (H-[Ac5c]-Gly-OH)
inactive: dose: 100.0 mg/kg/injection, schedule: Q04DX003 (ip), vehicle: saline 104 % of control | dose: 200.0 mg/kg/injection, schedule: Q04DX003 (ip), vehicle: saline 100 % of control

O=C1CN(CCN2CC(=O)N(c3ccccc3)C2=S)C(=S)N1Cc1ccccc1
inactive: dose: 50.0 mg/kg/injection, schedule: Q01DX009 (ip), vehicle: saline with Tween-80 96 % of control | dose: 100.0 mg/kg/injection, schedule: Q01DX009 (ip), vehicle: saline with Tween-80 90 % of control | dose: 200.0 mg/kg/injection, schedule: Q01DX009 (ip), vehicle: saline with Tween-80 94 % of control

COc1ccccc1C(=O)N/N=C(\C)c1cccc2ccccc12
inactive: [1] 108 % of control | [2] 110 % of control | [3] 96 % of control

C=CCNC(=S)N/N=C\c1cc(OC)c(OC)c(OC)c1
inactive: [4] 96 % of control | dose: 200.0 mg/kg/injection, schedule: Q04DX003 (ip), vehicle: saline with Tween-80 94 % of control | dose: 400.0 mg/kg/injection, schedule: Q04DX003 (ip), vehicle: saline with Tween-80 98 % of control

O=C(O)CC1(c2ccccc2)OC(=O)c2ccccc21 (configuration not stated)
inactive: dose: 50.0 mg/kg/injection, schedule: Q04DX002 (ip), vehicle: saline with Tween-80 92 % of control | dose: 100.0 mg/kg/injection, schedule: Q04DX002 (ip), vehicle: saline with Tween-80 92 % of control | dose: 200.0 mg/kg/injection, schedule: Q04DX002 (ip), vehicle: saline with Tween-80 99 % of control | dose: 400.0 mg/kg/injection, schedule: Q04DX002 (ip), vehicle: saline with Tween-80 89 % of control

CC(=O)N/N=C/c1ccc([N+](=O)[O-])s1
inactive: [4] 94 % of control

CCCCCCCCCC[Se]C#N
inactive: dose: 5.0 mg/kg/injection, schedule: Q01DX001 (ip), vehicle: saline 112 % of control | dose: 10.0 mg/kg/injection, schedule: Q01DX001 (ip), vehicle: saline 114 % of control

Cc1cc(C)c(N(C)C(=O)CCC(=O)O)c(Br)c1
inactive: [1] 89 % of control | [5] 101 % of control | [2] 101 % of control | [6] 100 % of control | [3] 101 % of control | [7] 94 % of control

O=C(O)C12CCC(CC1Br)C2 (configuration not stated)
inactive: dose: 75.0 mg/kg/injection, schedule: Q01DX001 (ip), vehicle: acetone 105 % of control | [8] 102 % of control | dose: 150.0 mg/kg/injection, schedule: Q01DX001 (ip), vehicle: acetone 106 % of control | [9] 110 % of control | dose: 300.0 mg/kg/injection, schedule: Q01DX001 (ip), vehicle: acetone 102 % of control | [10] 102 % of control

Cc1ccc(S(=O)(=O)Nc2ccc(NS(=O)(=O)c3ccc(C)cc3)cc2)cc1
inactive: [8] 97 % of control | [5] 105 % of control | [9] 94 % of control | [6] 95 % of control | [10] 94 % of control | [7] 101 % of control

CSc1ccc(NC(=O)COc2ccccc2)cc1
inactive: [1] 102 % of control | [2] 98 % of control | [3] 98 % of control

O=C1c2cccc3cccc(c23)C(=O)N1CCc1ccccn1
inactive: [1] 91 % of control | [2] 92 % of control

CCn1c(C)nc2cc(S(=O)(=O)C(F)(F)C(F)Cl)ccc21 (configuration not stated)
inactive: dose: 100.0 mg/kg/injection, schedule: Q01DX001 (ip), vehicle: Klucel (hydroxypropylcellulose) (HPC) 100 % of control | [1] 94 % of control | dose: 200.0 mg/kg/injection, schedule: Q01DX001 (ip), vehicle: Klucel (hydroxypropylcellulose) (HPC) 97 % of control | [2] 101 % of control | dose: 400.0 mg/kg/injection, schedule: Q01DX001 (ip), vehicle: Klucel (hydroxypropylcellulose) (HPC) 97 % of control | [3] 106 % of control
